# Results published in patent US10508113B2, “Inhibitors of tyrosine kinase 2 mediated signaling” (AbbVie Inc., priority 2018, dated 2019).
# Legend:
# Jak2 = target: T1, Jak2 (Homo sapiens, UniProt O60674); assay: Jak2 (PSTATS UT7) alpha screen assay: inhibition of EPO induced phosphorylation of STAT5 in UT7 cells; assay type: cell-based; settings: calculated from tabulated EC50 data (Jak2 / Tyk2)
# T1 construct: Cell Type: UT7 cells engineered to express the erythropoietin (EPO) receptor; endogenous in cells; host or cells: UT7 cells engineered to express the EPO receptor
# T1 sequence (O60674 whole entry): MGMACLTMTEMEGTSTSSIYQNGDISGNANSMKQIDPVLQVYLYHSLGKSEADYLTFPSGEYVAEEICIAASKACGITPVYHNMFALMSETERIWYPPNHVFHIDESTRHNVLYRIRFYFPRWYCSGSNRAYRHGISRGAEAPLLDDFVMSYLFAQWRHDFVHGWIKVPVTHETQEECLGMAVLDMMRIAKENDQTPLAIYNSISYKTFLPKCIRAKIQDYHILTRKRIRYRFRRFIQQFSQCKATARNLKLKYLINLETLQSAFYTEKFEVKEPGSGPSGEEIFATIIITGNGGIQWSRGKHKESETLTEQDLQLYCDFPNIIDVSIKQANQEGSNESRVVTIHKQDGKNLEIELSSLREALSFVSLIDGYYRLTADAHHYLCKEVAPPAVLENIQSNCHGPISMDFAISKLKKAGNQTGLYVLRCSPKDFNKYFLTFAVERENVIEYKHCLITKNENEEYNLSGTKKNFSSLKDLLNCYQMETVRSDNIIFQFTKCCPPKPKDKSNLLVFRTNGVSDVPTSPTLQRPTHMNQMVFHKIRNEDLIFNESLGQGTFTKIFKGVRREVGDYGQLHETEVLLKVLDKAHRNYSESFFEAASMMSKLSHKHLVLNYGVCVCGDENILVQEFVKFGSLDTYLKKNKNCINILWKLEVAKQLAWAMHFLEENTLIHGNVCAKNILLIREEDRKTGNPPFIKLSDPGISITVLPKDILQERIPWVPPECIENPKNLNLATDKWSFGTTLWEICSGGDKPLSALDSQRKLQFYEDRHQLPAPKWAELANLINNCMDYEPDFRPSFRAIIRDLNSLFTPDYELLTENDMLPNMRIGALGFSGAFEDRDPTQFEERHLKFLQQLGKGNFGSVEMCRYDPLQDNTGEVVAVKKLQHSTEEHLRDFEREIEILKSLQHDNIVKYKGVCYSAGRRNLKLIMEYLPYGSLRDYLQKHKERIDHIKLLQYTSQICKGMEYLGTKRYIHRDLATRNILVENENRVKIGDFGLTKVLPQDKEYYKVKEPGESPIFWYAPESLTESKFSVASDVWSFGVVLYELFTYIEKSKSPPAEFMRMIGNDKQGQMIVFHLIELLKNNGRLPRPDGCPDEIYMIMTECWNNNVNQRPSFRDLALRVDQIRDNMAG
# Method: 3. JAK2 (PSTATS UT7) ALPHA SCREEN ASSAY
# Erythropoietin (EPO) is known to transduce its signal through EPO receptor via Jak2. Activity against Jak2 was therefore measured by determining inhibition of EPO induced phosphorylation of STATS in UT7 cells. […] Materials
# Cell Type: UT7 cells engineered to express the erythropoietin (EPO) receptor; Culture Medium: Dulbecco's Modified Eagle Medium (DMEM) with 2 mM L-glutamine, 10 mM hydroxyethyl piperazineethanesulfonic acid (HEPES), 10% heat-inactivated fetal bovine serum (FBS) and Stock EPO (5000U in 250 uL, need 5U/mL, so add 250 μL to 1L of media); Assay Medium: 5% FBS ultra-low IgG and 1% Pen/Strep. Compounds were made-up in 100% dimethyl sulfoxide (DMSO).
# Day One - Starve Cells: 4 Flasks for one 384 plate (spin down @1000 rpm for 10 minutes and add DMEM with no EPO).
# (§1) Day Two—Compound Dilutions:
# i. Manual 8-point 1:3 dilution curve: 5 mM top concentration dispensed in row A of a
# Corning 96-well polypropylene plate, columns 2-12. DMSO dispensed in position A01 for low and high controls. Compounds were serially diluted 1:3 by adding 10 μL stock to 20 μL DMSO down the plate.
# ii. Media dilution of compounds: Serially diluted compounds were diluted 1:50 in assay medium by adding 4 μL compound to 196 μL assay medium in a Corning 96-well polypropylene plate.
# 384 Alpha Screen Plate Set up: Transferred 2.5 μL/well of compound solution from last dilution plate. Replicates were vertical, so that one column of the 96-well dilution plate goes into one column on the 384-well plate twice. Plated 1×10^5 starved cells/well in 5μL. Washed cells in 10 mL Hank's balanced salt solution (HBSS) after spinning down. Counted live cells. Multiplied by dilution factor and 10,000 (constant) to get the concentration of viable cells. Multiplied by volume of cells to get the total number of live cells. Divided by 20,000,000 cells/mL to get the volume needed. Subtracted the original volume to get the volume to be added to get the final concentration of cells. Mixed in reservoir if needed, ensuring that all cell clumps are broken up (if not broken up, they were removed from the suspension). Cells were plated at 5 μL/well in gray Alpha Screen 384-well plate. Spinned the plate to bring the contents to the bottom of the wells at 400 rpm for 2 minutes. Top final compound concentration: 25 μM. Sealed with adhesive and tapped gently. Incubated cells at 37° C. for 30 minutes.
# c. EPO Stimulation (p STATS)
# Once cells were in incubator, immediately prepared working stock of EPO (1 nM final assay concentration). EPO stock=2860 nM of sterile filtered liquid in sodium citrate buffer (1 liter of ddH2O containing 5.9 g of sodium citrate, 5.8 g of sodium chloride and 0.06 g of citric acid). Diluted 1:22.72 by adding 4.44 stock EPO to 95.6 pi assay media, then dilute again […] depending on how much volume is needed for the assay plates. Used assay medium to bring to volume. Added 2.5 μL EPO to each well. Spinned plate at 400 rpm briefly; tap the plate gently before covering with an adhesive seal. Cells were incubated at 37° C. for 20 minutes.
# Added 2.5 μL of 5X Lysis buffer to each well. Spinned plate at 400 rpm briefly. Incubated at room temperature (on orbital shaker) for 10 minutes.
# e. Protein (A) Acceptor Beads Preparation: (Light sensitive)
# (§2) Phosphorylated Signal Transducer and Activator of Transcription 5 (pSTAT5) was quantified using the PerkinElmer SureFire pSTATS (Tyrosine 694/699) Assay. Calculated total volume needed (wells×15 μL×30%). Divided total volume by 5 to get volume of activation buffer. Subtracted volume of activation buffer from total volume and divide by 40 to get volume of acceptor beads (add last). Total volume - acceptor bead volume - activation buffer to get volume of reaction buffer. Added 15 μL to each well and covered with foil. Shaked on orbital shaker for 2 hours at 500 rpm.
# (§3) f. Streptavidin Donor Beads Preparation:
# Calculated total volume needed (wells×6μL×30%). […]
# Jak1 = target: T2, Jak1 (Homo sapiens, UniProt P23458); assay: Jak1 (PSTAT3 TF1) alpha screen assay: inhibition of IL-6 induced phosphorylation of STAT3 in TF1 cells; assay type: cell-based; settings: calculated from tabulated EC50 data (Jak1 / Tyk2)
# T2 construct: endogenous in cells; host or cells: TF1 cells
# T2 sequence (P23458 whole entry): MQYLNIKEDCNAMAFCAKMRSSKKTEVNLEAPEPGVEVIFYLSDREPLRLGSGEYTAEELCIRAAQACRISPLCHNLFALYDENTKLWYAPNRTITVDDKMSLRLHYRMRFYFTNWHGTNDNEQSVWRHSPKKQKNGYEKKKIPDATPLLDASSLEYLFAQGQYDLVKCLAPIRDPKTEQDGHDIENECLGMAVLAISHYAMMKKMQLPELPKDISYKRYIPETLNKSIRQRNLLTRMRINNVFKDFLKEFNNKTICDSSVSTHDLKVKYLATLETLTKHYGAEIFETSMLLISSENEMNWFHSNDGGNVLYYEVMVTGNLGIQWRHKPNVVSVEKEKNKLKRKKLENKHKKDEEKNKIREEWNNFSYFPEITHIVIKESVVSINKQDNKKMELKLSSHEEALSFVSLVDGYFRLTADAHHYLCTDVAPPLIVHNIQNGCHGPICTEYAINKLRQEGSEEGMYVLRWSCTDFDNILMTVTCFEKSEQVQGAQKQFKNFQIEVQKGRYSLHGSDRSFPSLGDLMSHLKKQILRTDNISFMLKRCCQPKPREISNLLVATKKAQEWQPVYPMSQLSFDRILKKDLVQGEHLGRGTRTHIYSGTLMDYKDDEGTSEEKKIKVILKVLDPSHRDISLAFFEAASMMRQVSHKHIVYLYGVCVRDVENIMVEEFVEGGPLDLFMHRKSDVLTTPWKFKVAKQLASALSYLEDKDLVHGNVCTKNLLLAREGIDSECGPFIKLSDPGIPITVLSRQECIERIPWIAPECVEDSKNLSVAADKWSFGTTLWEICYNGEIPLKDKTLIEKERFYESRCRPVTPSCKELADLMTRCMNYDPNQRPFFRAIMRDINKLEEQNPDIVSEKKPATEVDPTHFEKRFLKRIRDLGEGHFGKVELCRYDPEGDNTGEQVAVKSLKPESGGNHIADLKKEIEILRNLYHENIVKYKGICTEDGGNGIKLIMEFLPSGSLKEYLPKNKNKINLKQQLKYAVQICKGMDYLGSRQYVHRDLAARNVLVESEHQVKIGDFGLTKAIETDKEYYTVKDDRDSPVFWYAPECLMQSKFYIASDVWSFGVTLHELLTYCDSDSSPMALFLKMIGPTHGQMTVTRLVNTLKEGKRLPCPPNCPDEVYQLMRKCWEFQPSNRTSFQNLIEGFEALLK
# Method: 2. JAK1 (PSTAT3 TF1) ALPHA SCREEN ASSAY
# IL-6 is known to transduce its signal through IL-6 receptor via Jak1. Activity against Jak1 was therefore measured by determining inhibition of IL-6 induced phosphorylation of STAT3 in TF1 cells.
# Cell Type: TF1 Cells; Culture Medium: RPMI 1640 Medium, 2mM L-glutamine, 10% heat- inactivated fetal bovine serum (FBS), 10 mM hydroxyethyl piperazineethanesulfonic acid (HEPES), and 2 ng/mL recombinant human interleukin-6(IL-6); Assay Medium: Dulbecco's Modified Eagle Medium (DMEM) medium with 2 mM L-glutamine, 10 mM HEPES, 100 U/mL penicillin/streptomycin, 1.5 g/L sodium bicarbonate, 4.5 g/L glucose, 1 mM sodium pyruvate, 10% heat-inactivated FBS; Compound Preparation: Compounds are dissolved in 100% dimethyl sulfoxide (DMSO).
# Day One—Starve Cells: 4 Flasks for one 384 plate (spin down @1000 rpm for 10 minutes and add RPMI 1640 Medium, 2 mM L-glutamine, 10% FBS, 10 mM HEPES with no IL-6 -incubate overnight).
# as §1
# i. Manual 8-point 1:5 dilution curve: 5 mM top concentration dispensed in row A of a
# Corning 96-well polypropylene plate, columns 2-12. DMSO dispensed in position A01 for low and high controls. Compounds were serially diluted 1:5 by adding 10 μL stock to […] DMSO down the plate.
# ii. Media dilution of compounds: Serially diluted compounds were further diluted 1:12.5 in assay medium by adding 4 μL compound to 46 μL assay medium in a Corning 96-well polypropylene plate.
# 384 Alpha Screen Plate Set up: Transfer 2.5 μL/well of compound solution from assay media dilution plate. Replicates were vertical, one column of the 96-well dilution plate goes into one column on the 384-well plate twice. Plated 1×10^5 starved cells/well in 5 μL. Washed cells in 10 mL DMEM medium after spinning down. Brought cell pellet up in assay media. Counted live cells. Multiplied by dilution factor and 10,000 (constant) to get the concentration of viable cells. Multiplied by volume of assay media used to bring up cells to get the total number of live cells. Divided by 20,000,000 cells/mL to get the volume needed. Cells were plated at 5 μL/well in gray Alpha Screen 384-well plate. Spinned the plate to bring the contents to the bottom of the wells at 300 rpm for 60 seconds. Top final compound concentration: 25 μM. Sealed with adhesive and tapped gently. Incubated plate at 37° C. for 30 minutes. c. IL-6 Stimulation (pSTAT3)
# Once cells were in incubator, immediately prepared working stock of IL-6 (100 ng/mL final concentration). IL-6 stock=10 μg/mL of IL-6 in phosphate buffered saline with 0.1% bovine serum albumin. Diluted 1:25 by adding 60 μL stock IL-6 to 1440 μL assay media. Added 2.5 μL IL-6 to each well. Spinned plate at 300 rpm briefly; tapped the plate gently before covering with an adhesive seal. Incubated plate at 37° C. for 30 minutes.
# Added 2.5 μL of 5X Lysis buffer to each well. Incubated at room temperature on orbital shaker for 10 minutes.
# e. Protein (A) Acceptor Beads Preparation:
# as §2, with “3 (pSTAT3)” for “5 (pSTAT5)”, “pSTAT3” for “pSTATS”, “705)” for “694/699)”, “(wells×[…]×25%).” for “(wells×15 μL×30%).”, “volume−acceptor” for “volume - acceptor”, “volume−activation buffer=volume” for “volume - activation buffer to get volume”
# as §3
# Calculated total volume needed (wells×[…]×25%). Divided total volume by 20 to get volume of donor beads (add last). Subtracted volume of donor beads from total volume to get volume of dilution buffer. Added 6 μL to each well and covered with foil. Shaked on orbital shaker overnight at 500 rpm.
# Read plate on a Perkin Elmer Envision. […]
SMILES,Tyk2 selectivity over Jak2 (Jak2),Tyk2 selectivity over Jak1 (Jak1)
"CO[C@@]1(c2cccc(-c3cn(C)c4cnc(NC(N)=O)cc34)n2)CCOC1 [Example 1, (R)-1-(3-(6-(3-Methoxytetrahydrofuran-3-yl)pyridin-2-yl)-1-methyl-1H-pyrrolo[2,3-c]pyridin-5-yl)urea]",>424-fold,92-fold
"CO[C@@]1(c2cccc(-c3cn([C@@H]4CC4(F)F)c4cnc(NC(N)=O)cc34)n2)CCOC1 [Example 1.2, 1-(1-((R)-2,2-difluorocyclopropyl)-3-(6-((R)-3-methoxytetrahydrofuran-3-yl)pyridin-2-yl)-1H-pyrrolo[2,3-c]pyridin-5-yl)urea]",>556-fold,300-fold
"CO[C@@]1(c2cc(C)cc(-c3cn(C)c4cnc(NC(N)=O)cc34)n2)CCOC1 [Example 1b.2, (R)-1-(3-(6-(3-methoxytetrahydrofuran-3-yl)-4-methylpyridin-2-yl)-1-methyl-1H-pyrrolo[2,3-c]pyridin-5-yl)urea]",>1000-fold,840-fold
"COC1(c2cccc(-c3cn(C)c4cnc(NC(N)=O)cc34)n2)COC1 [Example 1b.4, 1-(3-(6-(3-methoxyoxetan-3-yl)pyridin-2-yl)-1-methyl-1H-pyrrolo[2,3-c]pyridin-5-yl)urea]",>176-fold,54-fold
"Cn1cc(-c2cncc([C@]3(C)CCOC3)n2)c2cc(NC(N)=O)ncc21 [Example 1b.5, (S)-1-(1-methyl-3-(6-(3-methyltetrahydrofuran-3-yl)pyrazin-2-yl)-1H-pyrrolo[2,3-c]pyridin-5-yl)urea]",>1389-fold,83-fold
"Cn1cc(-c2cncc([C@@]3(C)CCOC3)n2)c2cc(NC(N)=O)ncc21 [Example 1b.6, (R)-1-(1-methyl-3-(6-(3-methyltetrahydrofuran-3-yl)pyrazin-2-yl)-1H-pyrrolo[2,3-c]pyridin-5-yl)urea]",>128-fold,22-fold
"COCc1cc(-c2cn(C)c3cnc(NC(C)=O)cc23)nc([C@]2(OC)CCOC2)c1 [Example 2, (R)-N-(3-(4-(Methoxymethyl)-6-(3-methoxytetrahydrofuran-3-yl)pyridin-2-yl)-1-methyl-1H-pyrrolo[2,3-c]pyridin-5-yl)acetamide]",>198-fold,>317-fold
"CO[C@@]1(c2cc(C)cc(-c3cn(C)c4cnc(NC(C)=O)cc34)n2)CCOC1 [Example 2.2, (R)-N-(3-(6-(3-methoxytetrahydrofuran-3-yl)-4-methylpyridin-2-yl)-1-methyl-1H-pyrrolo[2,3-c]pyridin-5-yl)acetamide]",>126-fold,207-fold
"CO[C@@]1(c2cc(C(F)F)cc(-c3cn(C)c4cnc(NC(C)=O)cc34)n2)CCOC1 [Example 2.8, (R)-N-(3-(4-(difluoromethyl)-6-(3-methoxytetrahydrofuran-3-yl)pyridin-2-yl)-1-methyl-1H-pyrrolo[2,3-c]pyridin-5-yl)acetamide]",>595-fold,405-fold
"CC[C@]1(c2cc(C#N)cc(-c3cn(C)c4cnc(NC(C)=O)cc34)n2)CCOC1 [Example 2.11, (R)-N-(3-(4-cyano-6-(3-ethyltetrahydrofuran-3-yl)pyridin-2-yl)-1-methyl-1H-pyrrolo[2,3-c]pyridin-5-yl)acetamide]",>240-fold,72-fold
"CO[C@@]1(c2cc(C#N)cc(-c3cn([C@@H]4CC4(F)F)c4cnc(NC(C)=O)cc34)n2)CCOC1 [Example 2a.3, N-(3-(4-cyano-6-((R)-3-methoxytetrahydrofuran-3-yl)pyridin-2-yl)-1-((R)-2,2-difluorocyclopropyl)-1H-pyrrolo[2,3-c]pyridin-5-yl)acetamide]",>197-fold,440-fold
"COCc1cc(-c2cn(C)c3cnc(NC(C)=O)cc23)nc([C@@]2(CO)CCOC2)c1 [Example 22a, (R)-N-(3-(6-(3-(hydroxymethyl)tetrahydrofuran-3-yl)-4-(methoxymethyl)pyridin-2-yl)-1-methyl-1H-pyrrolo[2,3-c]pyridin-5-yl)acetamide]",>21-fold,
